Results reported in article PMC10600239, “Selective MCL-1 inhibitor ABBV-467 is efficacious in tumor models but is associated with cardiac troponin increases in patients” (Communications Medicine, 2023).
Where “and” joins values, the source holds several entries; their conditions need not be identical. Identical values can stand only once. Like-named read-outs stand apart in the source and are kept apart here.

How the values were obtained:
MV4-11 cells = assay: In vitro cell viability assay (CellTiter-Glo); type: cell-based, human
Procedure: (§1) All cell lines were grown and treated in RPMI 1640 or Dulbecco’s modified Eagle medium (Sigma, St. Louis, MO) supplemented with 10% fetal bovine serum (Gibco) or 10% human serum (Sigma) and maintained in a humidified incubator at 5% CO2 and 37 °C. DLD-1, MV4-11, NCI-H929 (all ATCC, Manassas, VA, USA) and AMO-1 (DSMZ, Braunschweig, Germany) cells were plated 4000 cells per well in 384-well tissue culture plates and treated with compounds of interest for 24 h at 37 °C, 5% CO2 humidified incubator. Each concentration was tested in duplicate at least 3 separate times. Adherent cells were allowed to adhere overnight prior to treatment. Alternatively, AMO-1 or NCI-H929 cells were treated with ABBV-467 for the indicated contact times (1–24 h) at 37 °C in a 5% CO2 humidified incubator and washed 3 times with compound-free media prior to incubation for the remainder of a 24-h treatment period. Cell viability was subsequently determined using CellTiter-Glo (Promega, Madison, WI, USA) according to the manufacturer’s instructions.
(§2) For in vitro viability assays, mean EC50 and EC90 values were determined from the resulting dose-response curves from at least 3 independent experiments, and depict the mean ± standard error of the mean.

DLD-1 cells = assay: In vitro cell viability assay (CellTiter-Glo); type: cell-based, human; conditions: Homo sapiens
Procedure: as §1, §2

AMO-1 cells = assay: In vitro cell viability assay (CellTiter-Glo); type: cell-based, human
Procedure: as §1, §2
(§3) Fig. 2 Apoptosis induced by ABBV-467 is mechanism based and induces cell death in MCL-1-dependent cell lines after short target engagement periods. H929 cells were treated with ABBV-467 in the presence or absence of the pan-caspase inhibitor z-VAD-fmk (50 µM) and the impact on caspase-3/7 activation (a), mitochondrial membrane potential (ΔΨm; b), and apoptosis (c) determined. Alternatively, BAK-deficient SKBR3 cells were treated with ABBV-467 for 24 h and the impact on cell viability compared with the parental cell line, determined by CellTiter-Glo. Inset depicts a western blot of BAK and BAX expression in SKBR3 cell variants using GAPDH as a loading control. Each of the 3 proteins were probed on separate blots (d). Data in (a–d) are presented as the mean ± standard error of the mean. H929 and AMO-1 cells were treated with ABBV-467 at the indicated concentrations and the impact on caspase-3/7 activation and viability (DRAQ7-positive) cells determined over time by Incucyte®. Data are presented as the mean ± standard deviation (e). H929 or AMO-1 cells were cultured in media containing 10% human serum and treated with ABBV-467 for the indicated contact times. Cells were subsequently washed 3 times with drug-free media and incubated in drug-free media for the remainder of the 24-h treatment period at 37 °C before cell viability was determined by CellTiter-Glo. Mean EC50 and EC90 values were determined from the resulting dose-response curves from at least 3 independent experiments, each assessed in quadruplicate, and depict the mean ± standard error of the mean. Presented ABBV-467 dose-response curves in H929 and AMO-1 cells were compiled from at least 3 independent experiments (f).

H929 cells = assay: In vitro cell viability assay (CellTiter-Glo); type: cell-based, human
Procedure: as §1, §2, §3

SKBR3 cells = assay: Cell viability of parental and BAK-, BAX-, BCL2L11-, PMAIP1-deficient SKBR3 cells (CellTiter-Glo); type: cell-based; design: SKBR3 BAK Fig 2D: unit not given here
Procedure: as §3
Supplementary Fig. S5: SKBR3 cells deficient in BAX, BAK , PM AIP 1 (gene encoding the protein NOXA),
BCL 2L 11 (gene encoding the protein BIM) were treated with ABBV-467 for 24 hours and the impact on
cell death compared to the parental cell line determined by CellTiter- Glo™.

[1] = Homo sapiens, MV4-11, 24 h, read-out: MV4-11 EC50 (nM, 10% FBS), 10% FBS, 24 h continuous treatment
[2] = DLD-1, read-out: DLD-1 EC50 (nM), 10% FBS, 24 h continuous treatment
[3] = Homo sapiens, AMO1, 24 h, read-out: AMO-1 EC50 (nM, 10% FBS), 10% FBS, 24 h continuous treatment
[4] = Homo sapiens, NCI-H929, 24 h, read-out: H929 EC50 (nM, 10% FBS), 10% FBS, 24 h continuous treatment
[5] = Homo sapiens, MV4-11, MV4-11, arithmetic mean, read-out: Arithmetic Mean EC50 nM
[6] = Homo sapiens, MV4-11, MV4-11, arithmetic mean, read-out: Arithmetic Mean EC50 µM
[7] = Homo sapiens, MV4-11, MV4-11, individual determinations, read-out: Individual EC50
[8] = MV4-11, individual determinations, read-out: Individual EC50
[9] = DLD-1, arithmetic mean, read-out: Arithmetic Mean EC50
[10] = DLD-1, individual determinations, read-out: Individual EC50
[11] = AMO-1, individual determinations, read-out: Individual EC50
[12] = Homo sapiens, AMO1, AMO-1, arithmetic mean, read-out: Arithmetic Mean EC50 nM
[13] = Homo sapiens, AMO1, AMO-1, arithmetic mean, read-out: Arithmetic Mean EC50 µM
[14] = Homo sapiens, AMO1, AMO-1, individual determinations, read-out: Individual EC50
[15] = Homo sapiens, NCI-H929, NCI-H929, arithmetic mean, read-out: Arithmetic Mean EC50 nM
[16] = Homo sapiens, NCI-H929, NCI-H929, arithmetic mean, read-out: Arithmetic Mean EC50 µM
[17] = NCI-H929, individual determinations, read-out: Individual EC50

Compound | EC50 (MV4-11 cells; [1]) | EC50 (DLD-1 cells; [2]) | EC50 (AMO-1 cells; [3]) | EC50 (H929 cells; [4]) | EC50 (MV4-11 cells; [5]) | EC50 (MV4-11 cells; [6]) | EC50 (MV4-11 cells; [7]) | EC50 (MV4-11 cells; [8]) | EC50 (DLD-1 cells; [9]) | EC50 (DLD-1 cells; [10]) | EC50 (AMO-1 cells; [11]) | EC50 (AMO-1 cells; [12]) | EC50 (AMO-1 cells; [13]) | EC50 (AMO-1 cells; [14]) | EC50 (H929 cells; [15]) | EC50 (H929 cells; [16]) | EC50 (H929 cells; [17]) | further results
Cc1c2c(nn1C)CSCc1cc(n(C)n1)CSc1cc(c3ccccc3c1)OCCCc1c(C(=O)O)n(C)c3c-2c(Cl)ccc13 [AZD5991, reference compound] | 34.9 nM | > 10000 nM | 22.9 nM | 31.7 nM | – | – | – | – | – | – | – | – | – | – | – | – | – | –
CO[C@H]1/C=C/C[C@H](C)[C@@H](C)S(=O)(=O)NC(=O)c2ccc3c(c2)N(C[C@@H]2CC[C@H]21)C[C@@]1(CCCc2cc(Cl)ccc21)CO3 [AMG 176, reference compound] | 106 nM | > 10000 nM | 90.6 nM | 195 nM | – | – | – | – | – | – | – | – | – | – | – | – | – | –
Cc1c2c(nn1C)CSCc1cc(n(C)n1)CSc1cc(c3ccccc3c1)OCCCc1c(C(=O)O)n(C)c3c-2c(Cl)ccc13 [AZD-5991] | – | – | – | – | 34.9 nM | 34.9 nM | 36.3 nM | 35 nM and 33.3 nM | > 10000 nM | > 10000 nM | 18.6 nM and 18.3 nM and 31.9 nM | 22.9 nM | 22.9 nM | 22.8 nM | 31.6 nM | 31.6 nM | 22 nM and 20.4 nM and 19.8 nM and 64.4 nM | –
CO[C@]1(CN2CCN3CCCC[C@@H]3C2)/C=C/C[C@H](C)[C@@H](C)S(=O)(=O)NC(=O)c2ccc3c(c2)N(C[C@@H]2CC[C@H]21)C[C@@]1(CCCc2cc(Cl)ccc21)CO3 [AMG 397, reference compound] | 43.6 nM | > 10000 nM | 13.5 nM | 13 nM | 43.6 nM | 43.6 nM | 44.3 nM | 42 nM and 44.6 nM | > 10000 nM | > 10000 nM | 13.1 nM and 12.8 nM | 13.5 nM | 13.5 nM | 14.8 nM | 13 nM | 13 nM | 13.4 nM and 12.9 nM | EC50 (H929 cells; Homo sapiens, NCI-H929, NCI-H929, individual determinations, read-out: Individual EC50): 12.7 nM
CO[C@H]1/C=C/C[C@H](C)[C@@H](C)S(=O)(=O)NC(=O)c2ccc3c(c2)N(C[C@@H]2CC[C@H]21)C[C@@]1(CCCc2cc(Cl)ccc21)CO3 [AMG-176] | – | – | – | – | 106 nM | 106 nM | – | 85.5 nM and 203 nM | > 10000 nM | > 10000 nM | 105 nM and 130 nM and 174 nM | 90.6 nM | 90.6 nM | – | 195 nM | 195 nM | – | –
Cc1c(Cl)c2c(Cl)c(C)c1-c1c(-c3ccc(F)cc3)sc3ncnc(c13)O[C@@H](C(=O)O)Cc1cc(ccc1OCc1ccnc(-c3ccc(OC[C@H]4COCCO4)cc3)n1)OC[C@@H](CN1CCN(C)CC1)O2 [Compound A-1747745.7] | – | – | – | – | – | – | – | – | – | – | – | – | – | – | – | – | – | SKBR3 BAK Fig 2D (SKBR3 cells; SKBR3 BAK-/-, Log [A-1747745.7] uM 0.045757): 84.0406 and 88.7361 and 91.3691; SKBR3 BAK Fig 2D (SKBR3 cells; SKBR3 BAK-/-, Log [A-1747745.7] uM 0.522879): 91.5492 and 90.6375 and 98.324; SKBR3 BAK Fig 2D (SKBR3 cells; SKBR3 BAK-/-, Log [A-1747745.7] uM 1): 71.243 and 87.693 and 82.7613; SKBR3 BAK Fig 2D (SKBR3 cells; SKBR3 BAK-/-, Log [A-1747745.7] uM -0.43136): 93.7393 and 91.7734 and 95.9555; SKBR3 BAK Fig 2D (SKBR3 cells; SKBR3 BAK-/-, Log [A-1747745.7] uM -0.90849): 91.4405 and 96.0162 and 91.1767; SKBR3 BAK Fig 2D (SKBR3 cells; SKBR3 BAK-/-, Log [A-1747745.7] uM -1.38561): 96.4117 and 96.5016 and 91.1114; SKBR3 BAK Fig 2D (SKBR3 cells; SKBR3 BAK-/-, Log [A-1747745.7] uM -1.86273): 100.833 and 96.8873 and 90.9219; SKBR3 BAK Fig 2D (SKBR3 cells; SKBR3 BAK-/-, Log [A-1747745.7] uM -2.33985): 101.031 and 99.3037 and 92.3815; SKBR3 BAK Fig 2D (SKBR3 cells; SKBR3 BAK-/-, Log [A-1747745.7] uM -2.81697): 103.475 and 99.2425 and 96.192; SKBR3 BAK Fig 2D (SKBR3 cells; SKBR3 BAK-/-, Log [A-1747745.7] uM -3.29409): 92.6268 and 101.141 and 97.8192; SKBR3 BAK Fig 2D (SKBR3 cells; SKBR3 BAK-/-, Log [A-1747745.7] uM -3.79): 106.888 and 100.173 and 98.0201; SKBR3 BAK Fig 2D (SKBR3 cells; SKBR3 Parent, Log [A-1747745.7] uM -1.86273): 28.8447 and 52.516 and 42.8969; SKBR3 BAK Fig 2D (SKBR3 cells; SKBR3 Parent, Log [A-1747745.7] uM -2.33985): 83.0425 and 94.5116 and 88.5924; SKBR3 BAK Fig 2D (SKBR3 cells; SKBR3 Parent, Log [A-1747745.7] uM -2.81697): 98.7606 and 99.166 and 97.8729; SKBR3 BAK Fig 2D (SKBR3 cells; SKBR3 Parent, Log [A-1747745.7] uM -3.29409): 89.9706 and 97.7937 and 96.3217; SKBR3 BAK Fig 2D (SKBR3 cells; SKBR3 Parent, Log [A-1747745.7] uM -3.79): 100.8 and 103.293 and 99.6415
